Assay results as given in US10344019B2 (priority 2010, dated 2019).

Key:
Experiment in all cases: microbe, parasite or virus in culture
Format in all cases: cell-based
[1] = system: HCV 1a RLuc cells (dicistronic genotype 1a H77 replicon, RLuc reporter); details: Hepatitis C virus, genotype 1a H77 replicon, RLuc reporter; read-out: 1a
How it was run: (§1)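 Replicon cells stably carrying the listed RLuc-encoding dicistronic replicons were seeded and treated with DMSO serial dilutions of compound (10 mM stocks) diluted into culture medium. After 72 h, cells were lysed and Renilla luciferase activity measured. EC50 was derived by non-linear regression.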

[2] = system: HCV 1b RLuc cells (dicistronic genotype 1b Con1 replicon, RLuc reporter); details: Hepatitis C virus, read-out: 1b (nM)
How it was run: as §1

[3] = system: HCV 2a JFH-1 Rluc cells (dicistronic genotype 2a JFH-1 replicon, RLuc reporter); details: Hepatitis C virus, genotype 2a JFH-1 replicon, RLuc reporter; read-out: 2a JFH
How it was run: as §1

[4] = system: HCV 3a RLuc cells (NS5A chimeric genotype 1b Con1 replicon with consensus genotype 3a NS5A gene); details: Hepatitis C virus, read-out: 3a, genotype 3a NS5A chimeric 1b Con1 replicon
How it was run: as §1

[5] = system: HCV 4a Rluc cells (NS5A chimeric genotype 1b Con1 replicon with genotype 4a NS5A gene); details: Hepatitis C virus, read-out: 4a
How it was run: as §1

Compound	EC50 [1] [nM]	EC50 [2] [nM]	EC50 [3] [nM]	EC50 [4] [nM]	EC50 [5] [nM]
COC(=O)N[C@H](C(=O)N1CC(F)(F)C[C@H]1c1ncc(-c2ccc(-c3ccc4cc(-c5cnc([C@@H]6CCCN6C(=O)[C@H](NC(=O)OC)c6ccccc6)[nH]5)ccc4c3)cc2)[nH]1)C1CCOCC1 [Example 224]	0.001 to 0.999	0.008	0.001 to 0.999	0.001 to 0.99	0.001 to 0.99
COC(=O)N[C@H](C(=O)N1CCC[C@H]1c1ncc(-c2ccc3cc(-c4ccc(-c5cnc([C@@H]6CC(F)(F)CN6C(=O)[C@H](NC(=O)OC)c6ccccc6)[nH]5)cc4)ccc3c2)[nH]1)C1CCOCC1 [Example 225]	0.001 to 0.999	0.009	0.001 to 0.999	0.001 to 0.99	0.001 to 0.99
COC(=O)N[C@H](C(=O)N[C@H](c1nc(-c2ccc3c(c2)C(F)(F)c2cc(-c4ccc5nc([C@@H]6CCCN6C(=O)[C@H](NC(=O)OC)c6ccccc6)[nH]c5c4)ccc2-3)c[nH]1)C(C)C)C(C)C [Example 226]	1 to 44	0.009	1 to 44	1 to 4.99	0.001 to 0.99
COC(=O)N[C@H](C(=O)N[C@H](c1nc(-c2ccc3c(c2)C(F)(F)c2cc(-c4ccc5nc([C@@H]6CCCN6C(=O)[C@H](NC(=O)OC)c6ccccc6)[nH]c5c4)ccc2-3)c[nH]1)C(C)C)C1CCOCC1 [Example 227]	1 to 44	0.025	0.001 to 0.999	0.001 to 0.99	0.001 to 0.99
COC(=O)NC(C(=O)N1CCC[C@H]1c1nc(-c2ccc3cc(-c4ccc5c(ccc6nc([C@@H]7CCCN7C(=O)[C@@H](NC(=O)OC)C(C)C)[nH]c65)c4)ccc3c2)c[nH]1)c1cccnc1 (stereo partly drawn) [Example 228]	0.001 to 0.999	0.015	0.001 to 0.999	0.001 to 0.99	0.001 to 0.99
COC(=O)N[C@H](C(=O)N1CCC[C@H]1c1ncc(-c2ccc(C#Cc3ccc4c(ccc5nc([C@@H]6CCCN6C(=O)[C@@H](NC(=O)OC)C6CCOCC6)[nH]c54)c3)cc2)[nH]1)C(C)C [Example 229]	0.001 to 0.999	0.018	0.001 to 0.999	1 to 4.99	0.001 to 0.99
COC(=O)NC(C(=O)N1CCC[C@H]1c1ncc(-c2ccc(-c3ccc4cc(-c5cnc([C@@H]6CCCN6C(=O)[C@@H](NC(=O)OC)C(C)C)[nH]5)ccc4c3)cc2)[nH]1)c1cnccn1 (stereo partly drawn) [Example 230]	0.001 to 0.999	0.012	1 to 44	1 to 4.99	1 to 4.99
COC(=O)NC(C(=O)N1CCC[C@H]1c1ncc(-c2ccc3cc(-c4ccc5c(c4)CCc4nc([C@@H]6CCCN6C(=O)[C@@H](NC(=O)OC)C(C)C)[nH]c4-5)ccc3c2)[nH]1)c1cnccn1 (stereo partly drawn) [Example 231]	0.001 to 0.999	0.019	1 to 44	1 to 4.99	0.001 to 0.99
COC(=O)N[C@H](C(=O)N1CC(F)(F)C[C@H]1c1ncc(-c2ccc(-c3ccc4cc(-c5cnc([C@@H]6CCCN6C(=O)[C@H](NC(=O)OC)c6ccccc6)[nH]5)ccc4c3)cc2)[nH]1)C(C)C [Example 232]	0.001 to 0.999	0.004	0.001 to 0.999	0.001 to 0.99	0.001 to 0.99
COC(=O)N[C@H](C(=O)N1CC2(CC2)C[C@H]1c1ncc(-c2ccc(-c3ccc4cc(-c5cnc([C@@H]6CCCN6C(=O)[C@H](NC(=O)OC)c6ccccc6)[nH]5)ccc4c3)cc2)[nH]1)C(C)C [Example 233]	0.001 to 0.999	0.005	0.001 to 0.999	0.001 to 0.99	0.001 to 0.99
COC(=O)N[C@H](C(=O)N1CC2(CC2)C[C@H]1c1ncc(-c2ccc(-c3ccc4cc(-c5cnc([C@@H]6CCCN6C(=O)[C@H](NC(=O)OC)c6ccccc6)[nH]5)ccc4c3)cc2)[nH]1)C1CCOCC1 [Example 234]	0.001 to 0.999	0.011	0.001 to 0.999	0.001 to 0.99	0.001 to 0.99
COC(=O)N[C@H](C(=O)N1CCC[C@H]1c1ncc(-c2ccc3cc(-c4ccc(-c5cnc([C@@H]6CC7(CC7)CN6C(=O)[C@H](NC(=O)OC)c6ccccc6)[nH]5)cc4)ccc3c2)[nH]1)C(C)C [Example 235]	0.001 to 0.999	0.004	0.001 to 0.999	1 to 4.99	0.001 to 0.99
COC(=O)N[C@H](C(=O)N1CCC[C@H]1c1ncc(-c2ccc3cc(-c4ccc(-c5cnc([C@@H]6CC7(CC7)CN6C(=O)[C@H](NC(=O)OC)c6ccccc6)[nH]5)cc4)ccc3c2)[nH]1)C1CCOCC1 [Example 236]	0.001 to 0.999	0.011	0.001 to 0.999	0.001 to 0.99	0.001 to 0.99
COC(=O)N[C@H](C(=O)N1CCC[C@H]1c1ncc(-c2ccc3cc(-c4ccc(-c5cnc([C@@H]6CCCN6C(=O)[C@H](NC(=O)CN(C)C)c6ccccc6)[nH]5)cc4)ccc3c2)[nH]1)C(C)C [Example 237]	0.001 to 0.999	0.023	0.001 to 0.999	0.001 to 0.99	0.001 to 0.99
COC(=O)N[C@H](C(=O)N1CCC[C@H]1c1nc2ccc3cc(C#Cc4ccc(-c5cnc([C@@H]6CCCN6C(=O)[C@H](NC(=O)OC)c6ccccc6)[nH]5)cc4)ccc3c2[nH]1)C(C)C [Example 238]	0.001 to 0.999	0.005	0.001 to 0.999	0.001 to 0.99	0.001 to 0.99
COC(=O)NC(C(=O)N1CCC[C@H]1C1=NC(c2ccc3cc(-c4ccc5c(ccc6nc([C@@H]7CCCN7C(=O)[C@@H](NC(=O)OC)C7CCOCC7)[nH]c65)c4)ccc3c2)=CC1)c1cccnc1 (stereo partly drawn) [Example 239]	0.001 to 0.999	0.078	0.001 to 0.999	0.001 to 0.99	0.001 to 0.99
COC(=O)N[C@H](C(=O)N1CCC[C@H]1c1ncc(-c2ccc3cc(-c4ccc(-c5cnc([C@@H]6CCCN6C(=O)[C@@H](NC(=O)OC)[C@@H](C)OC)[nH]5)cc4)ccc3c2)[nH]1)C(C)C [Example 240]	0.001 to 0.999	0.01	0.001 to 0.999	1 to 4.99	0.001 to 0.99
COC(=O)N[C@H](C(=O)N1CCC[C@H]1c1ncc(-c2ccc3cc(-c4ccc(-c5cnc([C@@H]6CCCN6C(=O)[C@@H](NC(=O)OC)[C@H](C)OC)[nH]5)cc4)ccc3c2)[nH]1)C(C)C [Example 241]	0.001 to 0.999	0.011	1 to 44	1 to 4.99	0.001 to 0.99
COC(=O)N[C@H](C(=O)N1CCC[C@H]1c1nc2c([nH]1)-c1ccc(-c3ccc4cc(-c5cnc([C@@H]6CCCN6C(=O)[C@H](NC(=O)OC(C)(C)C)c6ccccc6)[nH]5)ccc4c3)cc1CC2)C(C)C [Example 242]	0.001 to 0.999	0.008	0.001 to 0.999	0.001 to 0.99	0.001 to 0.99
COC(=O)N[C@H](C(=O)N1CCC[C@H]1c1ncc(-c2cccc(-c3ccc4cc(-c5cnc([C@@H]6CCCN6C(=O)[C@@H](NC(=O)OC)C(C)C)[nH]5)ccc4c3)c2)[nH]1)C(C)C [Example 243]	> 44	4.59	> 44	> 5	0.001 to 0.99
COC(=O)N[C@H](C(=O)N1CCC[C@H]1c1nc2c([nH]1)-c1ccc(-c3ccc4cc(-c5cnc([C@@H]6CCCN6C(=O)[C@H](NC(=O)C(C)(C)O)c6ccccc6)[nH]5)ccc4c3)cc1CC2)C(C)C [Example 244]	0.001 to 0.999	0.014	0.001 to 0.999	0.001 to 0.99	0.001 to 0.99
